Measured values reported in patent US20250281564A1, “DYSREGULATION OF NEUROPROTEASOMES BY APOE ISOFORMS DRIVES ENDOGENOUS TAU AGGREGATION” (The Trustees of Columbia University in the City of New York, priority 2022, published 2025).

Columns and labels:
Tau [1] = assay: iBEp dose range in hTau/ApoE double KI primary neurons, sarkosyl-insoluble Tau; format: cell-based, mouse
primary cortical neurons [2] = assay: Quantitative TMT proteomics of sarkosyl-soluble and sarkosyl-insoluble fractions; format: cell-based, mouse; conditions: 1 and 6 hours
From the text: (FIG. 4A) (Top) Structure of azide-PEG24-epoxomicin handle to enable rapid conjugation of linkers to global proteasome inhibitor epoxomicin using Click chemistry. (Bottom) Structure of Neuroproteasome-specific inhibitor impermeant Biotin-PEG24-Epoxomicin (iBEp). (FIG. 4B) Assessing permeability of iBEp in primary neurons. […] Cytosolic (Cyto) and membrane (Mem) fractions were immunoblotted using indicated antibodies. (FIG. 4C) Proteasome catalytic activity of membrane (Mem) and cytosolic (Cyto) fractions of neurons treated with iBEp. […] Proteasome catalytic activity was assessed by monitoring degradation of Suc-LLVY-AMC; proteasome-dependent cleavage of the substrate increases AMC fluorescence. N=3 biological replicates. **** p<0.0001 by One-Way ANOVA. (FIG. 4D) Primary neurons treated with iBEp probed for autophagy markers. […] Lysates were immunoblotted using indicated antibodies against common autophagy markers. Quantification of p62, LC3b, and Ulk1 intensities normalized to Actin. […] (FIG. 4E) Schematic to analyze changes in sarkosyl-soluble and insoluble proteomes in response to neuroproteasome inhibition. […] Sarkosyl-soluble and insoluble fractions were labeled with Tandem Mass Tags (TMTpro) for quantitative mass spectrometry. (FIG. 4F) Differential enrichment of proteins in the sarkosyl-soluble fraction of neurons treated with iBEp versus DMSO was analyzed and plotted as log 2-fold change vs-log 10 (P-value). Green dots represent proteins enriched in the iBEp treatment compared to DMSO treatment. (FIG. 4G) Graphs plotting the log 2-fold change of select Neuroproteasome substrates enriched in the sarkosyl-soluble fraction from MS analysis in (FIG. 4F) compared to UPS substrates and autophagy markers ** p<0.01 (adjusted p-value after multiple corrections). (FIG. 4H) Differential enrichment of proteins in the sarkosyl-insoluble fraction of neurons treated with iBEp versus DMSO was analyzed and plotted as log 2-fold change vs −log 10 (P-value). Green dots represent proteins enriched in the iBEp treatment compared to DMSO treatment. […]

[3] = test system: Thioflavin S-positive aggregates; assay: Thioflavin S staining of hippocampal sections of hTau-KI mice after stereotactic injection; conditions: stereotactic injection, 72 hours, vs vehicle
Protocol: (§4) Scale bars=15 μm (FIG. 6C) Immunohistochemical analysis of mice stereotactically injected with iBEp to measure Tau phosphorylation in vivo. […] Mice were collected 72 hours post injection and sections were stained using indicated antibodies: NeuN (blue) and AT8 (pTau, green). 4×, 20× and 60× representative images are shown. Quantification of pTau signal intensity was normalized to NeuN intensity. Analysis was done blinded to experimental condition. Data are mean±SEM normalized either to DMSO or iBEP+CHX. n=2 sections/animal, ** p<0.01 by Paired T-test/experiment. Scale bars=500 μm (left), scale bar=25 μm (right). (FIG. 6D) Immunohistochemical analysis of mice stereotactically injected with iBEp to measure Thioflavin-S positive Tau aggregates in vivo. Four-to-five month old hTau-KI mice were treated identically to (FIG. 6C), but stained for Thioflavin S (magenta) to visualize β-sheet containing aggregates and immunostained with NeuN (blue). N=7 (3M, 4F). Left, Vehicle-treated hippocampus, Right, iBEp-treated hippocampus (red). […] Data are quantification of number of flame-like Thioflavin-S positive inclusions. Counting and analysis was blinded to experimental condition. *** p<0.001 by one-way ANOVA. Scale bars=100 μm. (FIG. 6E) Higher magnification image of flame-like Thioflavin S-positive inclusions (magenta), NeuN (blue). Top, ThioS alone, Bottom, merge with NeuN. Scale bar=20 μm. […]

p62, LC3bI/II, Ulk1 = assay: Autophagy marker immunoblot in primary neurons; format: cell-based, mouse; conditions: 12 hours, DIV14 WT primary cortical neurons
From the text: (FIG. 4A) (Top) Structure of azide-PEG24-epoxomicin handle to enable rapid conjugation of linkers to global proteasome inhibitor epoxomicin using Click chemistry. (Bottom) Structure of Neuroproteasome-specific inhibitor impermeant Biotin-PEG24-Epoxomicin (iBEp). (FIG. 4B) Assessing permeability of iBEp in primary neurons. […] Cytosolic (Cyto) and membrane (Mem) fractions were immunoblotted using indicated antibodies. (FIG. 4C) Proteasome catalytic activity of membrane (Mem) and cytosolic (Cyto) fractions of neurons treated with iBEp. […] Proteasome catalytic activity was assessed by monitoring degradation of Suc-LLVY-AMC; proteasome-dependent cleavage of the substrate increases AMC fluorescence. N=3 biological replicates. **** p<0.0001 by One-Way ANOVA. (FIG. 4D) Primary neurons treated with iBEp probed for autophagy markers. […] Lysates were immunoblotted using indicated antibodies against common autophagy markers. Quantification of p62, LC3b, and Ulk1 intensities normalized to Actin. […] (FIG. 4E) Schematic to analyze changes in sarkosyl-soluble and insoluble proteomes in response to neuroproteasome inhibition. […] Sarkosyl-soluble and insoluble fractions were labeled with Tandem Mass Tags (TMTpro) for quantitative mass spectrometry. (FIG. 4F) Differential enrichment of proteins in the sarkosyl-soluble fraction of neurons treated with iBEp versus DMSO was analyzed and plotted as log 2-fold change vs-log 10 (P-value). Green dots represent proteins enriched in the iBEp treatment compared to DMSO treatment. (FIG. 4G) Graphs plotting the log 2-fold change of select Neuroproteasome substrates enriched in the sarkosyl-soluble fraction from MS analysis in (FIG. 4F) compared to UPS substrates and autophagy markers ** p<0.01 (adjusted p-value after multiple corrections). (FIG. 4H) Differential enrichment of proteins in the sarkosyl-insoluble fraction of neurons treated with iBEp versus DMSO was analyzed and plotted as log 2-fold change vs −log 10 (P-value). Green dots represent proteins enriched in the iBEp treatment compared to DMSO treatment. (FIG. 4I) (Left) Identification of proteins which are exclusively enriched in the insoluble fraction with no corresponding change in the soluble fraction (red). Plk2 represents the only protein which is enriched in the soluble fraction with no corresponding change in the insoluble fraction (green). Proteins plotted as differences in log 2 fold changes. (Right) Graphs plotting the log 2 fold changes of insoluble Tau (top) and soluble Tau (bottom) enriched in neurons treated with iBEp vs DMSO. ** p<0.01 (adjusted p-value after multiple corrections).
FIG. 5A-5G: Neuroproteasomes are differentially regulated by ApoE isoforms to determine formation of endogenous sarkosyl-insoluble Tau inclusions. […]

cytosolic proteasomes = biological target: T1, cytosolic proteasomes (Mus musculus, UniProt O55234+P70195+Q60692); assay: Suc-LLVY-AMC proteasome activity, cytosolic fraction of iBEp-treated neurons; format: cell-based; conditions: 6 hours, DIV14 neurons, vs DMSO
T1 construct: endogenous in cells; host or cells: primary cortical neurons from WT mice (DIV13-14); membrane and cytosolic fractions
From the text: (§1) (FIG. 4A) (Top) Structure of azide-PEG24-epoxomicin handle to enable rapid conjugation of linkers to global proteasome inhibitor epoxomicin using Click chemistry. (Bottom) Structure of Neuroproteasome-specific inhibitor impermeant Biotin-PEG24-Epoxomicin (iBEp). (FIG. 4B) Assessing permeability of iBEp in primary neurons. […] Cytosolic (Cyto) and membrane (Mem) fractions were immunoblotted using indicated antibodies. (FIG. 4C) Proteasome catalytic activity of membrane (Mem) and cytosolic (Cyto) fractions of neurons treated with iBEp. […] Proteasome catalytic activity was assessed by monitoring degradation of Suc-LLVY-AMC; proteasome-dependent cleavage of the substrate increases AMC fluorescence. N=3 biological replicates. **** p<0.0001 by One-Way ANOVA. (FIG. 4D) Primary neurons treated with iBEp probed for autophagy markers. […] Quantification of p62, LC3b, and Ulk1 intensities normalized to Actin. […] Sarkosyl-soluble and insoluble fractions were labeled with Tandem Mass Tags (TMTpro) for quantitative mass spectrometry. (FIG. 4F) Differential enrichment of proteins in the sarkosyl-soluble fraction of neurons treated with iBEp versus DMSO was analyzed and plotted as log 2-fold change vs-log 10 (P-value). […] (FIG. 4H) Differential enrichment of proteins in the sarkosyl-insoluble fraction of neurons treated with iBEp versus DMSO was analyzed and plotted as log 2-fold change vs −log 10 (P-value). […]

phosphorylated Tau [4] = assay: Immunohistochemistry for phosphorylated Tau (AT8) in hTau-KI mice after stereotactic injection; conditions: stereotactic injection, 72 hours, vs contralateral control
Protocol: as §4

newly synthesized Tau = assay: Puro-PLA-Tau: proximity ligation with puromycylation for newly synthesized Tau; format: cell-based
From the text: Analysis was done blinded to experimental condition. […] Scale bar=100 μm (right).

phosphorylated Tau [5] = assay: Immunocytochemistry for phosphorylated Tau (CP13) in hTau-KI hippocampal neurons; format: cell-based, mouse; conditions: 12 hours, primary hippocampal hTau-KI neurons, vs controls
primary cortical neurons [6] = assay: Permeability of iBEp in primary cortical neurons: membrane fractionation and biotin blot; format: cell-based, mouse; conditions: 1 μM, 1, 6 and 24 hours, cytosolic vs membrane fraction
From the text: as §1

proteasome [7] = biological target: T2, proteasome (Mus musculus, UniProt O55234+P70195+Q60692); assay: Covalent biotinylation of proteins in iBEp-treated neurons (SDS-PAGE biotin signal); format: cell-based
T2 construct: endogenous in cells
From the text: (§2) We next tested the potency and selectivity of iBEp relative to Epoxomicin. Epoxomicin covalently and irreversibly binds the catalytic β subunits of the proteasome-therefore, the biotin moiety on iBEp serves as a tracer to detect whether proteasomes are inhibited by monitoring biotin signal on an SDS-PAGE gel (83, 87-89). […] This is supported by previous data that modification of the non-reactive end of epoxomicin has been shown not to change the selectivity of Epoxomicin for the proteasome (83, 87-89). […] We therefore chose doses of inhibitor where the effective concentration of the inhibitor was similar to previous studies using Epoxomicin alone and well within the acceptable range of efficacy given how potent Epoxomicin is as a proteasome inhibitor.

Tau [8] = assay: Sarkosyl-insoluble Tau in hippocampus of hTau-KI mice after stereotactic injection; format: in vivo, mouse; conditions: 6.4 μM iBEp stereotactic, contralateral vehicle, 72 hours
proteasome [9] = biological target: proteasome (Homo sapiens, UniProt P28072+P28074+Q99436); assay: Efficacy against the proteasome relative to the parent inhibitor; format: biochemical
From the text: as §2
Many of our experiments rely on the use of iBEp because the biotin tracer on an irreversible and specific inhibitor allows us to track which proteasomes are inhibited. However, we wanted to validate our findings using a proteasome inhibitor with a distinct mechanism of action from Epoxomicin. We therefore modified MG132, a reversible peptide aldehyde proteasome inhibitor, with a sulfonated biotin linker on the nonreactive N-terminus (84). […] Instead, we turned to cellular and functional readouts of permeability. […]

Tau [10] = assay: Quantitative TMT phosphoproteomics of Tau in iBEp-treated WT neurons; format: cell-based, mouse; conditions: 1 μM, 1, 6 or 24 hours, WT primary neurons
From the text: We noticed that neuroproteasome inhibition induces the shift of sarkosyl-insoluble Tau into a species which migrates at a higher molecular weight on an SDS-PAGE gel, at approximately 64 kDa (FIG. 5A, FIG. 5B, FIG. 5D, FIG. 5F, FIG. 5G). Similar shifts in molecular weight of Tau are observed in the AD brain and is a hallmark phenotype of multiple neurodegenerative disorders (109, 110). This molecular weight shift can in part be due to Tau phosphorylation at many residues. Therefore, we wanted to address whether iBEp-induced Tau aggregates are phosphorylated. Rather than profiling by a panel of phospho-specific antibodies against Tau, we took a more unbiased approach and measured Tau phosphorylation by quantitative phosphoproteomics. We treated primary WT neurons with iBEp for either 1, 6, or 24 hours and then performed sarkosyl fractionations.

[11] = iBEp permeability in vivo: stereotactic CA1 injection and membrane fractionation; design: species or system mouse; conditions: stereotactic injection into CA1, 72 hours
neuroproteasomes = biological target: T3, neuroproteasomes (Mus musculus, UniProt O55234+P70195+Q60692); assay: Suc-LLVY-AMC proteasome activity, membrane fraction of iBEp-treated neurons; format: cell-based; conditions: 6 hours, DIV14 neurons, vs DMSO
T3 construct: endogenous in cells; host or cells: primary cortical neurons from WT mice (DIV13-14); membrane and cytosolic fractions
From the text: as §1

endogenous mouse Tau = assay: Sarkosyl fractionation and Tau immunoblot, WT primary cortical neurons; format: cell-based; conditions: 1 μM, 12 hours, vs DMSO
From the text: (§3) (FIG. 5A) Effect of neuroproteasome-specific inhibitor iBEp on Tau aggregation in primary neurons. […] Quantification of soluble and insoluble murine Tau (mTau) intensities normalized to soluble GAPDH. […] (FIG. 5B) Effect of neuroproteasome inhibition on aggregation of human Tau (hTau). […] (FIG. 5C) Generation of reversible neuroproteasome inhibitors to test effects of neuroproteasome inhibition. (Top) Structure of Sulfo-MG132 (SulfoMG). […] (FIG. 5D) Effect of reversible neuroproteasome inhibition using SulfoMG on Tau aggregation. […] Quantification of soluble and insoluble Tau intensities were normalized to soluble GAPDH. Data (right) are mean±SEM normalized respective to DMSO controls. […] (FIG. 5E) Testing iBEp permeability in vivo. […] 72 hours post injection, hippocampi were isolated and subjected to membrane fractionation without detergent. […] (FIG. 5F) Effect of neuroproteasome inhibition on Tau aggregation in vivo.

human Tau = assay: Sarkosyl fractionation and Tau immunoblot, hTau-KI primary cortical neurons; format: cell-based; conditions: 1 μM, 12 hours, vs DMSO
From the text: as §3

[12] = dose range 1000-1.6 nM, hTau/ApoE double KI neurons

Structure (SMILES): CC[C@H](C)[C@H](NC(=O)CCOCCOCCOCCOCCOCCOCCOCCOCCOCCOCCOCCOCCOCCOCCOCCOCCOCCOCCOCCOCCOCCOCCOCCOCCn1cc(COCCOCCOCCOCCNC(=O)CCCC[C@@H]2SC[C@@H]3NC(=O)N[C@@H]32)nn1)C(=O)N[C@H](C(=O)N[C@H](C(=O)N[C@@H](CC(C)C)C(=O)[C@@]1(C)CO1)[C@@H](C)O)[C@@H](C)CC [iBEp, Biotin-PEG24-Epoxomicin]
- sarkosyl-insoluble Tau in hTau/E4-dKI neurons at the lowest dose (Tau [1]; dose range 1000, 200, 40, 8 and 1.6 nM): accumulation of sarkosyl-insoluble Tau in hTau/E4-dKI neurons
- susceptibility to Tau aggregation, E4 neurons vs E3 neurons (more susceptible) (Tau [1]; [12]): over 25 fold
- susceptibility to Tau aggregation, hTau/E2-dKI vs hTau/E3-dKI neurons (less susceptible) (Tau [1]; [12]): over 10 fold
- cell penetration judged from proteomics (no UPS substrates or autophagy markers accumulate) (primary cortical neurons [2]; DIV12-14 primary cortical neurons): does not detectably penetrate cells
- number of proteins increasing in the soluble fraction (primary cortical neurons [2]; vs DMSO): over 250 proteins
- number of proteins that become sarkosyl-insoluble (primary cortical neurons [2]; vs DMSO): 52 proteins
- ThioS staining in the CA1 region of hippocampi [3]: strong increase in ThioS staining
- LC3bI/II (p62, LC3bI/II, Ulk1): no change in either p62 or LC3bI/II levels
- p62 levels (p62, LC3bI/II, Ulk1): no change in either p62 or LC3bI/II levels
- cytosolic proteasome activity (cytosolic proteasomes): remains completely intact
- phosphorylated Tau (AT8) signal in injected hippocampi (phosphorylated Tau [4]): threefold induction of phosphorylated Tau signal
- increase in Puro-PLA-Tau signal relative to DMSO (newly synthesized Tau; DIV14 primary hippocampal neurons, puromycin 10 minutes): ~3.5 fold
- newly synthesized Tau puncta greater than 24 nm in diameter (newly synthesized Tau; normalized to puncta number per size bin with DMSO): over twofold increase
- CP13 (phosphorylated S202 Tau) signal (phosphorylated Tau [5]): significant elevation of CP13 signal
- location of the biotin signal of covalent proteasome inhibition (permeability) (primary cortical neurons [6]): only in the membrane fraction, and not in the cytosol
- proteins covalently biotinylated in treated neurons (specificity) (proteasome [7]): covalent biotinylation of only three proteins
- sarkosyl-insoluble Tau in hippocampi of hTau-KI mice (Tau [8]): strong increase of sarkosyl-insoluble Tau
- efficacy against the proteasome relative to the parent inhibitor (proteasome [9]): moderately reduces the efficacy of iBEp relative to Epoxomicin
- Tau phosphorylation sites (human S202, T205, T217, S404) (Tau [10]): time-dependent increase in Tau phosphorylation at only 4 of 26 identified sites
- injected concentration at which penetration into the cytosol is observed [11]: 64 µM
- proteasome activity in the membrane fraction (neuroproteasomes): almost entirely abrogated
- sarkosyl-insoluble Tau, WT neurons (endogenous mouse Tau): significant increase in sarkosyl-insoluble Tau
- sarkosyl-insoluble Tau, hTau-KI neurons (human Tau): significant increase in sarkosyl-insoluble Tau
